Values quoted from earlier work in US8475839B2 (Novartis AG, priority 2006, dated 2013).

Tests used:
[1] = not given; remark: listed apart in the source

Row | SMILES | absolute oral bioavailability | solubility in water [1] | absolute oral bioavailability, wide range (range around the about 25% value)
1 | CCOC(=O)C1=C(COCCN)NC(C)=C(C(=O)OC)C1c1ccccc1Cl (centres unmarked) [Amlodipine besylate, 3-ethyl-5-methyl-2(2-aminoethoxymethyl)-4-(2-chlrorophenyl)-1,4-dihydro-6-methyl-3,5-pyridinedicarboxylate benzenesulphonate] | 64-90% | slightly soluble | –
2 | NS(=O)(=O)c1cc2c(cc1Cl)NCNS2(=O)=O [Hydrochlorothiazide] | 60-80% | – | –
3 | CCCCC(=O)N(Cc1ccc(-c2ccccc2-c2nnn[nH]2)cc1)[C@H](C(=O)O)C(C)C [valsartan, (S)-N-valeryl-N-{[2′-(1H-tetrazole-5-yl)-biphenyl-4-yl]-methyl}-valine] | about 25% | – | 10-35%
